Measurements reported in PMC8305101, “Synthesis and Cytotoxicity Evaluation of Spirocyclic Bromotyrosine Clavatadine C Analogs” (Marine Drugs, 2021).
Values joined by “and” are separate entries in the source; they are usually repeats but may differ in a detail not shown here. Equal values may be shown once.

Legend:
[1] = tested on: human malignant melanoma A-375 cell line; assay: Cytotoxicity in A-375 melanoma cells (CellTiter-Glo ATP viability); format: cell-based; conditions: for Primary Test Results (Cytotoxicity % at 50 µM in A-375 Cells): 48-h incubation, single experiment with three technical replicates; for CC50 / cytotoxicity at 50 µM: Homo sapiens, A-375, 48 h; for CC50: read-out: CC50 (µM) in A-375 Cells; for cytotoxicity at 50 µM: read-out: Primary Test Results (Cytotoxicity % at 50 µM in A-375 Cells), 50 µM, A-375 cells, 48-h incubation, single experiment with three technical replicates; for Selectivity Index (SI): ratio of CC50 values between Hs27 fibroblasts and A-375 melanoma cells, SD in parentheses
Method: (§1) Analysis of selectivity to cancer cells. The cells were seeded to white frame and clear bottom 96-well plates (Perkin Elmer) at a density of 10,000 cells/well for the human malignant melanoma A-375 cell line (ATCC CRL-1619) and 7500 cells/well for the human skin fibroblast Hs27 cell line (ATCC CRL-1634). The cells were grown at 37 °C, 5% CO2 until they reached 70–80% confluence (approximately 24 h). Stock solutions of test compounds and a positive control (camptothecin, Sigma-Aldrich, St. Louis, MO, USA) were prepared in DMSO and diluted into the assay medium (growth medium with 5% FBS) to the final concentration. Final DMSO concentration was 0.5% in all samples. The culture medium was removed from the plate and compounds added, 200 µL/well. After a 48-h incubation, the amount of ATP, which is directly proportional to the number of viable cells present in culture, was quantified using CellTiter-Glo® Luminescent Cell Viability kit (Promega, Madison, WI, USA), according to manufacturer’s instructions. Origin Graphing and Analysis, version 9.55 (OriginLab, Northampton, MA, USA), was used for determination of CC50 values. The cancer cell selectivity index was calculated as a ratio of CC50 values between Hs27 fibroblasts and A-375 melanoma cells. Standard deviation of selectivity indices was calculated using Equation (1) (1) σ(x¯/y¯)=(σ(x)/x¯)^2+(σ(y)/y¯)^2

[2] = Cytotoxicity in Hs27 normal skin fibroblasts (CellTiter-Glo ATP viability); format: cell-based; conditions: human, 48-h incubation, mean (SD) of 2–3 independent experiments in triplicate, read-out: CC50 (µM) in Hs27 Cells
Method: as §1

| Compound | Primary Test Results (Cytotoxicity % at 50 µM in A-375 Cells) [1] | CC50 [1] [µM] | cytotoxicity at 50 µM [1] [%] | Selectivity Index (SI) [1] | CC50 at 48 h [2] [µM] |
| --- | --- | --- | --- | --- | --- |
| 7,9-Dibromo-8-oxo-N’-picolinoyl-1-oxa-2-azaspiro[4.5]deca-2,6,9-triene-3-carbohydrazide [Compound 39] | 75.2% | – | – | – | – |
| N=C(N)NCCCCNC(=O)C1=NOC2(C=CC(=O)C=C2)C1 [Compound 11, N-(4-Guanidinobutyl)-8-oxo-1-oxa-2-azaspiro[4.5]deca-2,6,9-triene-3-carboxamide] | less than 25% and −8.2% | – | – | – | – |
| CN(C)C(=O)C1=NOC2(C=CC(=O)C=C2)C1 [Compound 12, N,N-Dimethyl-8-oxo-1-oxa-2-azaspiro[4.5]deca-2,6,9-triene-3-carboxamide] | – | 2.1 | 95.1 | 1.8 (0.6) | 3.8 |
| CN(C)C(=O)C1=NOC2(C=C(Br)C(=O)C(Br)=C2)C1 [Compound 13, 7,9-Dibromo-N,N-dimethyl-8-oxo-1-oxa-2-azaspiro[4.5]deca-2,6,9-triene-3-carboxamide] | – | 3.7 | 99.8 | – | 7.2 |
| CC(C)N(C)C(=O)C1=NOC2(C=C(Br)C(=O)C(Br)=C2)C1 [Compound 14, 7,9-Dibromo-N-isopropyl-N-methyl-8-oxo-1-oxa-2-azaspiro[4.5]deca-2,6,9-triene-3-carboxamide] | – | 7.2 | 99.9 | – | 7.8 |
| O=C1C=CC2(C=C1)CC(C(=O)N1CCOCC1)=NO2 [Compound 15, 3-(Morpholine-4-carbonyl)-1-oxa-2-azaspiro[4.5]deca-2,6,9-trien-8-one] | – | 3.8 | 96.1 | 0.7 (0.2) | 2.5 |
| O=C1C=CC2(C=C1)CC(C(=O)N1CCC(O)CC1)=NO2 [Compound 16, 3-(4-Hydroxypiperidine-1-carbonyl)-1-oxa-2-azaspiro[4.5]deca-2,6,9-trien-8-one] | – | 4.9 | 97.1 | 1.5 (0.2) | 7.4 |
| O=C1C=CC2(C=C1)CC(C(=O)NNC(=O)CN1CCOCC1)=NO2 [Compound 17, N’-(2-Morpholinoacetyl)-8-oxo-1-oxa-2-azaspiro[4.5]deca-2,6,9-triene-3-carbohydrazide] | 20.8% | – | < 25 | – | – |
| O=C1C=CC2(C=C1)CC(C(=O)Nc1cc(Cl)cc(Cl)c1)=NO2 [Compound 18, N-(3,5-Dichlorophenyl)-8-oxo-1-oxa-2-azaspiro[4.5]deca-2,6,9-triene-3-carboxamide] | – | 0.4 | 100 | 2.0 (0.8) | 0.8 |
| O=C(Nc1cc(Cl)cc(Cl)c1)C1=NOC2(C=C(Br)C(=O)C(Br)=C2)C1 [Compound 19, 7,9-Dibromo-N-(3,5-dichlorophenyl)-8-oxo-1-oxa-2-azaspiro[4.5]deca-2,6,9-triene-3-carboxamide] | – | 9.2 | 94.9 | 0.7 (0.5) | 6.8 |
| COc1ccc(NC(=O)C2=NOC3(C=CC(=O)C=C3)C2)cc1Cl [Compound 20, N-(3-Chloro-4-methoxyphenyl)-8-oxo-1-oxa-2-azaspiro[4.5]deca-2,6,9-triene-3-carboxamide] | – | 1.2 | 100 | 1.3 (0.5) | 1.5 |
| COc1ccc(NC(=O)C2=NOC3(C=C(Br)C(=O)C(Br)=C3)C2)cc1Cl [Compound 21, 7,9-Dibromo-N-(3-chloro-4-methoxyphenyl)-8-oxo-1-oxa-2-azaspiro[4.5]deca-2,6,9-triene-3-carboxamide] | – | 2.3 | 101 | 2.2 (0.3) | 5 |
| O=C1C=CC2(C=C1)CC(C(=O)NCCc1c[nH]c3ccccc13)=NO2 [Compound 22, N-[2-(1H-Indol-3-yl)ethyl]-8-oxo-1-oxa-2-azaspiro[4.5]deca-2,6,9-triene-3-carboxamide] | – | 0.7 | 99.8 | 1.0 (0.3) | 0.7 |
| COc1ccc(CNC(=O)C2=NOC3(C=CC(=O)C=C3)C2)cc1 [Compound 23, N-(4-Methoxybenzyl)-8-oxo-1-oxa-2-azaspiro[4.5]deca-2,6,9-triene-3-carboxamide] | – | 1.2 | 100 | 1.2 (0.6) | 1.4 |
| COc1ccc(CNC(=O)C2=NOC3(C=C(Br)C(=O)C(Br)=C3)C2)cc1 [Compound 24, 7,9-Dibromo-N-(4-methoxybenzyl)-8-oxo-1-oxa-2-azaspiro[4.5]deca-2,6,9-triene-3-carboxamide] | – | 3.5 | 97.8 | 0.9 (0.3) | 3.3 |
| COc1ccc(CCNC(=O)C2=NOC3(C=CC(=O)C=C3)C2)cc1 [Compound 25, N-(4-Methoxyphenethyl)-8-oxo-1-oxa-2-azaspiro[4.5]deca-2,6,9-triene-3-carboxamide] | – | 1.2 | 100 | 1.7 (0.3) | 2 |
| O=C1C=CC2(C=C1)CC(C(=O)Nc1cccnc1)=NO2 [Compound 26, 8-Oxo-N-(pyridin-3-yl)-1-oxa-2-azaspiro[4.5]deca-2,6,9-triene-3-carboxamide] | – | 2 | 99.2 | 1.0 (0.8) | 1.9 |
| O=C(Nc1cccnc1)C1=NOC2(C=C(Br)C(=O)C(Br)=C2)C1 [Compound 27, 7,9-Dibromo-8-oxo-N-(pyridin-3-yl)-1-oxa-2-azaspiro[4.5]deca-2,6,9-triene-3-carboxamide] | – | 3 | 101 | 2.2 (0.5) | 6.6 |
| O=C1C=CC2(C=C1)CC(C(=O)Nc1ccccn1)=NO2 [Compound 28, 8-Oxo-N-(pyridin-2-yl)-1-oxa-2-azaspiro[4.5]deca-2,6,9-triene-3-carboxamide] | – | 1.9 | 99.6 | 0.8 (0.4) | 1.5 |
| O=C(Nc1ccccn1)C1=NOC2(C=C(Br)C(=O)C(Br)=C2)C1 [Compound 29, 7,9-Dibromo-8-oxo-N-(pyridin-2-yl)-1-oxa-2-azaspiro[4.5]deca-2,6,9-triene-3-carboxamide] | – | 2.4 | 101 | 2.4 (0.4) | 5.8 |
| O=C(Nc1ccc(C(F)(F)F)cn1)C1=NOC2(C=C(Br)C(=O)C(Br)=C2)C1 [Compound 30, 7,9-Dibromo-8-oxo-N-[5-(trifluoromethyl)pyridin-2-yl]-1-oxa-2-azaspiro[4.5]-deca-2,6,9-triene-3-carboxamide] | – | 3.6 | 98.1 | 0.6 (0.2) | 2.3 |
| O=C(Nc1ccc(C(F)(F)F)nc1)C1=NOC2(C=C(Br)C(=O)C(Br)=C2)C1 [Compound 31, 7,9-Dibromo-8-oxo-N-[6-(trifluoromethyl)pyridin-3-yl]-1-oxa-2-azaspiro[4.5] deca-2,6,9-triene-3-carboxamide] | – | 5.3 | 98.6 | 0.4 (0.1) | 2.1 |
